Measurements from PubChem BioAssay AID330 (DTP/NCI, 2004).
Several values for one entry are separate records, joined by “and”; a condition that tells them apart may be missing. Equal values may be shown once. Toxic doses and inconclusive results are not listed.

System: P388 leukemia ip, CD2F1 mice, survival T/C
Experiment: NCI In Vivo Anticancer Drug Screen. Data for tumor model P388 Leukemia (intraperitoneal) in CD2F1 (CDF1) mice
Details: endpoint: median survival time, higher = longer survival
Outline: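 Mice carrying the transplanted tumor received test compound or vehicle. Survival was recorded in each group, and the value is the treated-group measurement divided by that of the vehicle-treated control group.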

[1] = dose: 7.5 mg/kg/injection, schedule: Q01DX005 (ip), vehicle: saline with Tween-80
[2] = dose: 50.0 mg/kg/injection, schedule: Q01DX009 (ip), vehicle: Klucel (hydroxypropylcellulose) (HPC)
[3] = dose: 100.0 mg/kg/injection, schedule: Q01DX009 (ip), vehicle: Klucel (hydroxypropylcellulose) (HPC)
[4] = dose: 200.0 mg/kg/injection, schedule: Q01DX009 (ip), vehicle: Klucel (hydroxypropylcellulose) (HPC)

With `CCOC(c1ccc(OC)cc1)c1cc(C(C)(C)C)cc(C(C)(C)C)c1O` (configuration not stated) the T/C (dose: 50.0 mg/kg/injection, schedule: Q01DX005 (ip), vehicle: distilled water + alcohol) was 103 % of control, the T/C (dose: 100.0 mg/kg/injection, schedule: Q01DX005 (ip), vehicle: distilled water + alcohol) was 105 % of control and the T/C (dose: 200.0 mg/kg/injection, schedule: Q01DX005 (ip), vehicle: distilled water + alcohol) was 107 % of control.
With `N#CCCn1nc(SC2CCCCC2)c(=O)[nH]c1=O` the T/C (dose: 25.0 mg/kg/injection, schedule: Q01DX005 (ip), vehicle: water) was 108 % of control, the T/C (dose: 50.0 mg/kg/injection, schedule: Q01DX005 (ip), vehicle: water) was 103 % of control and the T/C (dose: 100.0 mg/kg/injection, schedule: Q01DX005 (ip), vehicle: water) was 98 % of control. For the same compound, the T/C (dose: 200.0 mg/kg/injection, schedule: Q01DX005 (ip), vehicle: water) was 108 % of control.
`Cc1ccc(S(=O)(=O)NCC(CNS(=O)(=O)c2ccc(C)cc2)C(C)(C)C)cc1` was tested, and the T/C (dose: 100.0 mg/kg/injection, schedule: Q01DX001 (ip), vehicle: Klucel (hydroxypropylcellulose) (HPC)) was 93 % of control and the T/C (dose: 200.0 mg/kg/injection, schedule: Q01DX001 (ip), vehicle: Klucel (hydroxypropylcellulose) (HPC)) was 93 % of control.
With `Cc1cc(N=Nc2ccccc2)cc(C)c1N` the T/C (dose: 100.0 mg/kg/injection, schedule: Q01DX009 (ip), vehicle: saline with Tween-80) was 90 % of control, the T/C (dose: 200.0 mg/kg/injection, schedule: Q01DX009 (ip), vehicle: saline with Tween-80) was 90 % of control and the T/C (dose: 400.0 mg/kg/injection, schedule: Q01DX009 (ip), vehicle: saline with Tween-80) was 100 % of control.
In the case of `CCOc1ccc2nc3ccccc3c(N)c2c1`, the T/C [1] is reported as 103 % of control and 112 % of control, the T/C (dose: 15.0 mg/kg/injection, schedule: Q01DX005 (ip), vehicle: saline with Tween-80) is reported as 113 % of control and the T/C (dose: 30.0 mg/kg/injection, schedule: Q01DX005 (ip), vehicle: saline with Tween-80) is reported as 124 % of control.
In the case of `COC(=O)CN(C)P(=O)(N1CC1)N1CC1`, the T/C (dose: 1.87 mg/kg/injection, schedule: Q01DX005 (ip), vehicle: saline) is reported as 107 % of control, the T/C (dose: 3.75 mg/kg/injection, schedule: Q01DX005 (ip), vehicle: saline) is reported as 124 % of control and the T/C [1] is reported as 198 % of control. For the same compound, the T/C (dose: 15.0 mg/kg/injection, schedule: Q01DX005 (ip), vehicle: saline) was 197 % of control.
In the case of `CC(=O)N1CCc2cc([N+](=O)[O-])cc(Br)c21`, the T/C (dose: 12.5 mg/kg/injection, schedule: Q01DX009 (ip), vehicle: distilled water + Tween-80) is reported as 107 % of control, the T/C (dose: 25.0 mg/kg/injection, schedule: Q01DX009 (ip), vehicle: distilled water + Tween-80) is reported as 98 % of control and the T/C (dose: 50.0 mg/kg/injection, schedule: Q01DX009 (ip), vehicle: distilled water + Tween-80) is reported as 91 % of control. For the same compound, the T/C (dose: 100.0 mg/kg/injection, schedule: Q01DX009 (ip), vehicle: distilled water + Tween-80) was 98 % of control and the T/C (dose: 200.0 mg/kg/injection, schedule: Q01DX009 (ip), vehicle: distilled water + Tween-80) was 91 % of control.
In the case of `CSc1ccc(NC(=O)Oc2ccccc2I)cc1`, the T/C [2] is reported as 104 % of control, the T/C [3] is reported as 104 % of control and the T/C [4] is reported as 109 % of control.
With `COc1ccc2c(c1)NC(c1ccc(C(N)=S)cc1)N2` (configuration not stated) the T/C (dose: 100.0 mg/kg/injection, schedule: Q04DX002 (ip), vehicle: saline with Tween-80) was 89 % of control, the T/C (dose: 200.0 mg/kg/injection, schedule: Q04DX002 (ip), vehicle: saline with Tween-80) was 87 % of control and the T/C (dose: 400.0 mg/kg/injection, schedule: Q04DX002 (ip), vehicle: saline with Tween-80) was 88 % of control.
`C/C(=N/N=C(N)N)c1cn[nH]c1C` was tested, and the T/C (dose: 60.0 mg/kg/injection, schedule: Q01DX005 (ip), vehicle: Klucel (hydroxypropylcellulose) (HPC)) was 107 % of control and the T/C (dose: 120.0 mg/kg/injection, schedule: Q01DX005 (ip), vehicle: Klucel (hydroxypropylcellulose) (HPC)) was 100 % of control.
In the case of `CCC(c1ccc(O)cc1)c1cc2c(cc1OCC(=O)OC)OCO2` (configuration not stated), the T/C (dose: 50.0 mg/kg/injection, schedule: Q01DX005 (ip), vehicle: saline with Tween-80) is reported as 97 % of control, the T/C (dose: 100.0 mg/kg/injection, schedule: Q01DX005 (ip), vehicle: saline with Tween-80) is reported as 93 % of control and the T/C (dose: 200.0 mg/kg/injection, schedule: Q01DX005 (ip), vehicle: saline with Tween-80) is reported as 88 % of control.
In the case of `O=[N+]([O-])c1cc2cccc([N+](=O)[O-])c2o1`, the T/C (dose: 50.0 mg/kg/injection, schedule: Q01DX005 (ip), vehicle: Klucel (hydroxypropylcellulose) (HPC)) is reported as 100 % of control, the T/C (dose: 100.0 mg/kg/injection, schedule: Q01DX005 (ip), vehicle: Klucel (hydroxypropylcellulose) (HPC)) is reported as 109 % of control and the T/C (dose: 200.0 mg/kg/injection, schedule: Q01DX005 (ip), vehicle: Klucel (hydroxypropylcellulose) (HPC)) is reported as 102 % of control.
For `O=C1c2ccccc2C(=O)c2c1cccc2N1CCOCC1`, the T/C [2] was 99 % of control and 100 % of control, the T/C [3] was 101 % of control and the T/C [4] was 103 % of control and 94 % of control.
In the case of `CCCCc1c(OS(=O)(=O)c2ccc(C)cc2)c(C#N)c2[nH]c3ccccc3n2c1=O`, the T/C (dose: 60.0 mg/kg/injection, schedule: Q01DX005 (ip), vehicle: saline with Tween-80) is reported as 91 % of control, the T/C (dose: 120.0 mg/kg/injection, schedule: Q01DX005 (ip), vehicle: saline with Tween-80) is reported as 96 % of control and the T/C (dose: 240.0 mg/kg/injection, schedule: Q01DX005 (ip), vehicle: saline with Tween-80) is reported as 89 % of control.
For `CCCN(CCC)CC1CN(/N=C/c2ccc([N+](=O)[O-])o2)C(=O)O1` (configuration not stated), the T/C (dose: 50.0 mg/kg/injection, schedule: Q01DX005 (ip), vehicle: saline) was 108 % of control, the T/C (dose: 100.0 mg/kg/injection, schedule: Q01DX005 (ip), vehicle: saline) was 100 % of control and the T/C (dose: 200.0 mg/kg/injection, schedule: Q01DX005 (ip), vehicle: saline) was 108 % of control.
